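In this assay, cells in 96-well plates receive the compound at five concentrations for 48 hours. Endpoints are linearly interpolated between the surrounding concentrations. GI50: concentration for 50% inhibition of growth.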 Active and inactive are the calls of the source. No stated cut-off is given here; in the data, active = GI50 up to about 1.1 µM and inactive = higher.
Assays:
Assay in all cases: NCI tumour cell line growth inhibition, 48 h
NCI-H226 = tested on: NCI-H226
NCI-H460 = tested on: NCI-H460
COLO 205 = tested on: COLO 205
CAKI-1 = tested on: CAKI-1
SK-MEL-2 = tested on: SK-MEL-2
SK-OV-3 = tested on: SK-OV-3
Hs-578T = tested on: Hs-578T
SF-295 = tested on: SF-295
LOX IMVI = tested on: LOX IMVI
RPMI-8226 = tested on: RPMI-8226
HL-60 = tested on: HL-60
786-0 = tested on: 786-0
SK-MEL-5 = tested on: SK-MEL-5
HCT-15 = tested on: HCT-15
NCI/ADR-RES = tested on: NCI/ADR-RES
UO-31 = tested on: UO-31
Malme-3M = tested on: Malme-3M
SK-MEL-28 = tested on: SK-MEL-28
A549 = tested on: A549
KM-20L2 = tested on: KM-20L2

Measured: GI50

COc1ccc(Cc2ccccc2C(=O)O)c2ccccc12
inactive: NCI-H226 39.4 µM | NCI-H460 18.8 µM | COLO 205 17.9 µM | CAKI-1 35.3 µM | SK-MEL-2 22.2 µM | SK-OV-3 40.6 µM | Hs-578T 12.1 µM | SF-295 28.4 µM | LOX IMVI 23.2 µM | RPMI-8226 29.4 µM | HL-60 21 µM | 786-0 34.2 µM | SK-MEL-5 17.3 µM | NCI/ADR-RES 32.5 µM | UO-31 32.1 µM | Malme-3M 21.8 µM | SK-MEL-28 25.1 µM | A549 33 µM
28.2 µM: HCT-15

O=[N+]([O-])c1cccc2nc3ccccc3c(NCCc3cccc[n+]3[O-])c12
< 0.0138 µM: HCT-15
active: NCI-H226 0.0738 µM | NCI-H460 < 0.0141 µM | COLO 205 < 0.01 µM | CAKI-1 < 0.0402 µM | SK-MEL-2 0.0619 µM | SK-OV-3 0.153 µM | Hs-578T 0.0782 µM | SF-295 < 0.0368 µM | LOX IMVI 0.0299 µM | RPMI-8226 0.0123 µM | HL-60 < 0.0427 µM | 786-0 < 0.0168 µM | SK-MEL-5 < 0.01 µM | NCI/ADR-RES 0.608 µM | UO-31 < 0.0193 µM | Malme-3M < 0.0144 µM | SK-MEL-28 < 0.01 µM | A549 < 0.0159 µM

O=C1CCC(=O)C12CCc1cccc(O)c12
> 100 µM: HCT-15
inactive: KM-20L2 > 100 µM | NCI-H460 > 100 µM | COLO 205 > 100 µM | CAKI-1 > 100 µM | SK-OV-3 > 100 µM | SF-295 > 100 µM | LOX IMVI > 100 µM | RPMI-8226 > 100 µM | HL-60 > 100 µM | 786-0 > 100 µM | UO-31 > 100 µM | Malme-3M > 100 µM | SK-MEL-28 > 100 µM | A549 > 100 µM

CC1CN1P1(N2CC2C)=NP(N2CC2C)(N2CC2C)=NP(N2CC2C)(N2CC2C)=N1 (centres undefined)
> 50 µM: HCT-15
inactive: KM-20L2 > 50 µM | NCI-H226 > 50 µM | NCI-H460 > 50 µM | COLO 205 > 50 µM | CAKI-1 > 50 µM | SK-OV-3 > 50 µM | SF-295 > 50 µM | RPMI-8226 > 50 µM | HL-60 > 50 µM | 786-0 > 50 µM | SK-MEL-5 > 50 µM | UO-31 > 50 µM | Malme-3M > 50 µM | SK-MEL-28 > 50 µM | A549 > 50 µM

COc1ccc(OC)c(NC(=O)C2=C(C)NC(C)=C(C(=O)Nc3cc(OC)ccc3OC)C2c2ccco2)c1
inactive: KM-20L2 > 100 µM | NCI-H226 > 100 µM | NCI-H460 > 100 µM | COLO 205 > 100 µM | CAKI-1 89.5 µM | SK-MEL-2 > 100 µM | SK-OV-3 > 100 µM | RPMI-8226 63 µM | 786-0 > 100 µM | SK-MEL-5 51.3 µM | UO-31 > 100 µM | Malme-3M > 100 µM | A549 > 100 µM
> 100 µM: HCT-15

CCOC(=O)c1c[nH]c2c(ccc3ncccc32)c1=O
> 100 µM: HCT-15
inactive: KM-20L2 > 100 µM | NCI-H460 > 100 µM | COLO 205 > 100 µM | SK-MEL-2 > 100 µM | SK-OV-3 > 100 µM | LOX IMVI > 100 µM | HL-60 > 100 µM | 786-0 > 100 µM | SK-MEL-5 > 100 µM | UO-31 > 100 µM | Malme-3M > 100 µM | SK-MEL-28 > 100 µM | A549 > 100 µM

O=C(SC1=NCCN1)c1cccc2ccccc12
48.6 µM: HCT-15
inactive: NCI-H226 32.3 µM | NCI-H460 62.5 µM | COLO 205 > 100 µM | CAKI-1 > 100 µM | SK-MEL-2 > 100 µM | SK-OV-3 44.5 µM | Hs-578T 81.3 µM | SF-295 36.8 µM | LOX IMVI > 100 µM | RPMI-8226 27.8 µM | HL-60 23.8 µM | 786-0 67.5 µM | SK-MEL-5 66.5 µM | NCI/ADR-RES 31.6 µM | UO-31 42.9 µM | Malme-3M 78.9 µM | SK-MEL-28 96.2 µM | A549 > 100 µM

CCOc1ccc(O)cc1[P+](c1ccccc1)(c1ccccc1)c1ccccc1
active: HL-60 0.501 µM
inactive: KM-20L2 2.46 µM | NCI-H226 1.64 µM | NCI-H460 3.24 µM | COLO 205 2.86 µM | CAKI-1 8.24 µM | SK-OV-3 6.53 µM | SF-295 4.5 µM | LOX IMVI 2.59 µM | RPMI-8226 3.5 µM | 786-0 7.24 µM | SK-MEL-5 1.66 µM | UO-31 17.4 µM | Malme-3M 3.65 µM | SK-MEL-28 4.47 µM | A549 4.69 µM

CCOc1cc(-c2nc3ccccn3c2/N=C/c2cc(Br)ccc2O)ccc1O
inactive: NCI-H226 93.3 µM | NCI-H460 58.3 µM | COLO 205 > 100 µM | CAKI-1 67.1 µM | SK-MEL-2 46.1 µM | SK-OV-3 29.2 µM | Hs-578T 61.4 µM | SF-295 58.2 µM | LOX IMVI 23.2 µM | RPMI-8226 26.5 µM | HL-60 15 µM | 786-0 25.1 µM | SK-MEL-5 30.3 µM | NCI/ADR-RES 27.7 µM | UO-31 27 µM | Malme-3M 41.1 µM | SK-MEL-28 > 100 µM | A549 37.9 µM
8.51 µM: HCT-15

CCOC(=O)C(=NN(C)c1ncccc1N)C(=O)OCC
inactive: NCI-H226 21.6 µM | NCI-H460 > 100 µM | COLO 205 14.4 µM | CAKI-1 33.3 µM | SK-MEL-2 29.6 µM | SK-OV-3 > 100 µM | Hs-578T > 100 µM | SF-295 > 100 µM | LOX IMVI 18.3 µM | RPMI-8226 30.3 µM | HL-60 15.1 µM | 786-0 29.6 µM | SK-MEL-5 68.4 µM | NCI/ADR-RES 53.3 µM | UO-31 38.8 µM | Malme-3M 29.1 µM | SK-MEL-28 > 100 µM | A549 > 100 µM
32.9 µM: HCT-15

CCOC(=O)N1CCN(c2ccc3c(C)cc(C)nc3n2)CC1
> 100 µM: HCT-15
inactive: NCI-H226 > 100 µM | NCI-H460 > 100 µM | COLO 205 > 100 µM | CAKI-1 > 100 µM | SK-MEL-2 > 100 µM | SK-OV-3 > 100 µM | Hs-578T > 100 µM | SF-295 > 100 µM | LOX IMVI > 100 µM | RPMI-8226 > 100 µM | HL-60 > 100 µM | 786-0 > 100 µM | SK-MEL-5 > 100 µM | NCI/ADR-RES > 100 µM | UO-31 > 100 µM | Malme-3M > 100 µM | SK-MEL-28 > 100 µM | A549 > 100 µM

COc1ccc(/C(Cl)=C/c2cc(OC)ccc2OC)cc1
inactive: KM-20L2 93.3 µM | NCI-H226 44.7 µM | COLO 205 > 100 µM | SK-OV-3 99.8 µM | SF-295 51.4 µM | RPMI-8226 34.2 µM | HL-60 28.4 µM | 786-0 81.8 µM | SK-MEL-5 64.7 µM | UO-31 98.9 µM | Malme-3M 93.3 µM | SK-MEL-28 79.6 µM | A549 75.2 µM
53.2 µM: HCT-15

COc1cc2c3c(c1OCc1ccccc1)NCCC3NCC2 (centres undefined)
inactive: KM-20L2 > 100 µM | NCI-H226 > 100 µM | NCI-H460 > 100 µM | COLO 205 > 100 µM | CAKI-1 > 100 µM | SF-295 > 100 µM | LOX IMVI > 100 µM | RPMI-8226 > 100 µM | HL-60 > 100 µM | 786-0 > 100 µM | SK-MEL-5 > 100 µM | UO-31 51.6 µM | Malme-3M > 100 µM | A549 > 100 µM
> 100 µM: HCT-15

CN(C)c1nc(N(C)C)nc(N(C)CN(C)c2nc(N(C)C)nc(N(C)C)n2)n1
> 100 µM: HCT-15
inactive: KM-20L2 > 100 µM | NCI-H460 > 100 µM | COLO 205 > 100 µM | CAKI-1 > 100 µM | SK-MEL-2 > 100 µM | SK-OV-3 > 100 µM | SF-295 > 100 µM | LOX IMVI > 100 µM | RPMI-8226 > 100 µM | HL-60 > 100 µM | 786-0 14.9 µM | SK-MEL-5 > 100 µM | UO-31 > 100 µM | Malme-3M > 100 µM | SK-MEL-28 > 100 µM | A549 > 100 µM

O=C(O)c1cccc(F)c1C(=O)c1ccc2ccccc2c1
inactive: NCI-H226 > 100 µM | NCI-H460 > 100 µM | COLO 205 2.99 µM | CAKI-1 > 100 µM | SK-MEL-2 > 100 µM | SK-OV-3 > 100 µM | Hs-578T > 100 µM | SF-295 > 100 µM | LOX IMVI > 100 µM | RPMI-8226 > 100 µM | HL-60 > 100 µM | 786-0 > 100 µM | NCI/ADR-RES > 100 µM | UO-31 > 100 µM | Malme-3M > 100 µM | SK-MEL-28 > 100 µM | A549 > 100 µM
active: SK-MEL-5 < 0.01 µM
> 100 µM: HCT-15

Cc1ccc(O)c(/N=N/c2ccc(S(=O)(=O)O)cc2)n1
inactive: KM-20L2 > 100 µM | NCI-H460 > 100 µM | COLO 205 > 100 µM | CAKI-1 > 100 µM | SK-OV-3 > 100 µM | SF-295 > 100 µM | LOX IMVI > 100 µM | RPMI-8226 > 100 µM | HL-60 > 100 µM | 786-0 > 100 µM | SK-MEL-5 > 100 µM | UO-31 > 100 µM | SK-MEL-28 > 100 µM | A549 > 100 µM
> 100 µM: HCT-15

Cc1c(O)c(=O)ccn1CCN
inactive: KM-20L2 > 100 µM | NCI-H226 > 100 µM | NCI-H460 > 100 µM | COLO 205 > 100 µM | CAKI-1 > 100 µM | SK-MEL-2 > 100 µM | SK-OV-3 > 100 µM | LOX IMVI > 100 µM | RPMI-8226 > 100 µM | 786-0 > 100 µM | UO-31 > 100 µM | Malme-3M > 100 µM | SK-MEL-28 > 100 µM | A549 > 100 µM
> 100 µM: HCT-15
